Measurements from US6359010B1, “Methods of treating anxiety and mood disorders with oleamide” (priority 1999, dated 2002).
Read-outs that look alike come from different tables or passages of the source.

What was measured:
rat 5-HT2 receptor = conditions: oocytes expressing the rat 5-HT2 receptor, cited from earlier work
[1] = system: N-methyl-D-aspartate (NDMA) receptor; conditions: cited from earlier work
[2] = system: CRH mRNA in cloned hypothalamic IVB cells; test: CRH mRNA detection by Northern hybridization in clone IVB cells; type: cell-based, rat; conditions: 0 mM to 10 mM oleamide, 20 hours incubation, densitometry normalized to 28S, vs vehicle
Protocol: (§1) Embryonic day 19 Sprague Dawley rats were humanely dissected from pregnant rats and decapitated as described by Kasckow et al. (1997). The hypothalamus was removed and sliced. Hypothalamic slices were placed in phosphate buffered saline (PBS: NaCl, 137 mM; Na2HPO4, 21 mM; KH2PO4, 29 mM; KCl, 1.2 mM; pH 7.3). Cells were dissociated for 10-15 minutes in 0.25% trypsin containing 75 units/ml of DNAse in serum-free media (SFM) consisting of a mixture of Dulbecco's modified essential medium and Ham's F-12 (1:1, v/v from Gibco) supplemented with 14 mM glucose, 15 mM NaHCO3, 5 mM Hepes and 0.05 U/ml of penicillin streptomycin (Sigma). […]
(§2) Virus producer cell line γCRE/pZIPTEX was propagated at 1×10^6 cells per 100 mm tissue culture dish in the same media used for dissociated hypothalamic cultures (SFM+7.5% fetal bovine serum). […] One cell was selected on the basis of CRH peptide production which was monitored by radioimmunoassay (described below). […]
Total RNA was isolated using the PUREscript RNA isolation kit (Gentra Systems, Minneapolis, Minn.). […] A Foto/Eclipse Imager (Fotodyne Inc., Hartland, Wis.) interfaced with Power Macintosh 8100/110 using NIH ImageQuant analysis software was utilized for densitometric quantitation of the mRNA bands.
(§3) The quantitative data obtained were expressed as mean±standard error. […]

5HT3 receptor = molecular target: T1, 5HT3 receptor (Homo sapiens, UniProt P46098); conditions: cited from earlier work
T1 sequence (P46098 24-478): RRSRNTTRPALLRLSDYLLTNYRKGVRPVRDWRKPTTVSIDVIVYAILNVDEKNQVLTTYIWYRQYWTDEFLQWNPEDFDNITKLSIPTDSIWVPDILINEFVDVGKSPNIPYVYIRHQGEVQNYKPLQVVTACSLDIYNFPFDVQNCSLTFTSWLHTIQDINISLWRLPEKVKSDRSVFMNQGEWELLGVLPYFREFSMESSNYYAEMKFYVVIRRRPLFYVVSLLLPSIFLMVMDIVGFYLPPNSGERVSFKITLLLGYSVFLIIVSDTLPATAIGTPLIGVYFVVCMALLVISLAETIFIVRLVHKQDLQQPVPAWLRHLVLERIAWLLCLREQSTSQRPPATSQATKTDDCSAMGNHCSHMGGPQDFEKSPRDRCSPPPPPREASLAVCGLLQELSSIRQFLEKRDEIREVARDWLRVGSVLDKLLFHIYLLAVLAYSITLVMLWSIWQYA

[3] = system: c-fos mRNA in brain areas; conditions: IP, rodents, cited from earlier work
GABAA receptor = conditions: cited from earlier work
[4] = system: CRH release from cloned hypothalamic IVB cells; test: CRH release from clone IVB cells by radioimmunoassay; type: cell-based, rat
Protocol: as §1, §2
RIA for CRH was performed according to the protocol provided by IgG Corporation (Nashville, Tenn.) utilizing the reagents provided. […] Radioactivity of the pellet was measured using a Packard Multi-Prias 4 gamma counter (Packard Instruments, Downers, Ill.).
as §3

5HT2 = conditions: in vivo evidence; cited from earlier work
rats [5] = test: Elevated plus maze; type: in vivo, rat
Protocol: Methods for elevated plus maze testing were as follows: Based on Lister (1987), a 2 feet-4 arm radial maze consisting of 2 opposing enclosed arms (30 cm high×30 cm long×5 cm wide) and 2 opposing exposed arms (30 cm×5 cm) was constructed and was elevated on a pedestal 30 cm above the surface of a table and situated in the center of a dimly lit room. Testing was conducted in a quiet, dedicated room that was dimmed to provide 22 to 350 lux of illumination on the exposed arms of the maze and less than 1 lux within the enclosed arms. Animals were placed facing towards the enclosed arm in the center of the plus maze. […] (1992 , 1994). We assessed time in open arms and closed arms, total number of entries and rearings, based on Windle et al. (1997). All observers were blind to treatment to remove any investigator bias.

rats [6] = conditions: cited from earlier work

Row | SMILES | effect on 5-HT-elicited currents (rat 5-HT2 receptor) | effects on NMDA receptor [1] | direct effects on 5-HT2 receptor (rat 5-HT2 receptor; without 5-HT) | CRH mRNA (CRH synthesis) [2] | CRH mRNA (CRH synthesis) ([2]; listed as Oleamide) | effects on 5HT3 receptor (5HT3 receptor) | activation of brain areas (transient induction of c-fos mRNA) ([3]; 1 mg/kg) | activation of brain areas (transient induction of c-fos mRNA) ([3]; 5 or 10 mg/kg) | effects on GABAA receptor (GABAA receptor) | immunoreactive CRH (CRH-LI) release ([4]; cloned IVB cells, 10 μM oleamide vs vehicle, n=9) | release of CRH ([4]; cloned hypothalamic IVB cells, concentration dependence) | 5HT2 function in vivo (5HT2) | exploratory behavior (rats [5]; 2 mg dose, rats approx. 250 g, n=10 per group) | total number of entries to both open and closed arm (rats [5]; 2 mg dose, rats, relative to vehicle, P=0.0241) | Rearings (mean) (rats [5]; 5 min of testing, 2 mg dose, rats, control 8.2, P=0.002) | Rearings (mean) (rats [5]; 10 min of testing, 2 mg dose, rats, control 15, P=0.01) | overall activity (rats [5]; IP dosing) | sleep latency (rats [6]; doses between 5 and 150 mg) | duration of induced sleep (rats [6]; intraperitoneal, doses between 5 and 50 mg) [h]
1 | CCCCCCCCCCCCCCCCCC(N)=O [octadecanamide, reference compound] | opposite those of oleamide | – | – | – | – | – | – | – | – | – | – | – | – | – | – | – | – | – | –
2 | CCCCCCCC/C=C\CCCCCCCC(N)=O [oleamide, cis-9,10-octadecenoamide] | markedly potentiates | no significant effects | no significant direct effects | concentration-dependent manner | increased CRH mRNA | no significant effects | not | activation of multiple brain areas | no significant effects | significant increase | significant concentration-dependent increases | indirectly potentiates | overall increase in exploratory behavior | approximately doubled | 17.2 | 24 | decreasing overall activity | reduce sleep latency | 1 to 2.5
3 | CCCCCCCC/C=C\CCCCCCCC(=O)O [oleic acid, reference compound] | does not have any effect | – | – | – | – | – | – | – | – | – | – | – | – | – | – | – | – | – | –
